Measured values from article PMC8119899, “A Single Mutation in the Outer Lipid-Facing Helix of a Pentameric Ligand-Gated Ion Channel Affects Channel Function Through a Radially-Propagating Mechanism” (Frontiers in Molecular Biosciences, 2021).
Substitutions are numbered along the chain they refer to.

Legend:
Type in all cases: cell-based
5-HT3A receptor D238A = molecular target: T1, 5-HT3A receptor D238A (Mus musculus, UniProt P23979, D265A); assay: FlexStation membrane potential dye, 5-HT response, D238A receptor in HEK293 cells; parameters: expressed in transfected cells; host or cells: HEK293; key to pEC50: Mutants that did not respond in the functional assay are marked as non functional (NF)
T1 sequence (P23979 24-489 D265A): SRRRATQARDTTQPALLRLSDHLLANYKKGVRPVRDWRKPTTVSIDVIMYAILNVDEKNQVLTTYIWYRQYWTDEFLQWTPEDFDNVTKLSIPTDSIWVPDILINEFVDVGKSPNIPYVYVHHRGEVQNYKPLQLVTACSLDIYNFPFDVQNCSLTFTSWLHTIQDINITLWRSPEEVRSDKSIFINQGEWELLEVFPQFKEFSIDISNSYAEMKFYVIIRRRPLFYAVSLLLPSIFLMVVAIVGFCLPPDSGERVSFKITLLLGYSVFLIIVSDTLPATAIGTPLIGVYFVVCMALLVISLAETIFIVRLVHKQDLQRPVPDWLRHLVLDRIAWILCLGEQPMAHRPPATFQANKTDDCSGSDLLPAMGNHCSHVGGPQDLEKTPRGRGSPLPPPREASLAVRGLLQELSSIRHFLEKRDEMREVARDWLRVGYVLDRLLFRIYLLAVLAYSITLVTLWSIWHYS
Protocol: (§1) The mouse 5-HT3A cDNA (Q6J1J7) in pcDNA3.1 (for HEK cell transfection) or pGEMHE (for RNA production) was modified by QuikChange site-directed mutagenesis (Agilent Technologies) to create point mutants (verified by sequencing).
Human embryonic kidney (HEK) 293 cells were maintained at 37 °C at 5% CO2 in a humidified atmosphere, in Dulbecco's Modified Eagle's Medium/Nutrient Mix F12 (1:1) (Invitrogen, Paisley, UK) with GlutaMAX^TM and 10% fetal bovine serum (GE Healthcare) (DMEM/FBS) and passaged when confluent. Five micrograms of WT or mutant 5-HT3A DNA and 30 μl polyethyleneamine (Polysciences) incubated for 10 min in 1 mL DMEM was added to 60% confluent HEK293 cells for transfection, and cells grown for 2 days before assays.
(§2) As described previously (Price and Lummis, [2005]) cells were incubated for 45 min with fluorescent membrane potential-sensitive dye (Membrane Potential Blue kit, Molecular Devices) diluted in Flex buffer (10 mM HEPES, 115 mM NaCl, 1 mM KCl, 1 mM CaCl2, 1 mM MgCl2, and 10 mM glucose, pH 7.4), and subsequently assayed at room temperature for 180 s, with readings every 2 s. […] (log of the concentration of ligand), a is the minimum response, b is the maximum response, and nH is the Hill slope.

5-HT3A receptor C290A = molecular target: T2, 5-HT3A receptor C290A (Mus musculus, UniProt P23979, C317A); assay: Two-electrode voltage clamp, 5-HT response, C290A receptor in Xenopus oocytes; conditions: mean and SEM, n ≥ 3
T2 sequence (P23979 24-489 C317A): T1 sequence (P23979 24-489 D265A) with A242D, C294A
Protocol: as §1
Xenopus laevis oocytes from EcoCyte Biosciences (Austin Texas) were injected with 100 pg cRNA (generated with the ThermoFisher mMESSAGE mMACHINE T7 transcription kit) and left in injection media [88 mM NaCl, 2.4 mM NaHCO3, 1 mM KCl, 0.82 mM MgSO4 ·7H20, 5 mM Tris-HCl, 0.33 mM Ca(NO3)2·4H2O, 0.41 mM CaCl2·2H2O, 2.51 mM sodium pyruvate, 0.12 mg/ml theophylline, 0.05 mg/ml gentamicin, pH 7.5] at 16 °C for 24 h. […] The holding potential was −60 mV, using glass microelectrodes with a resistance of approximately 1 MΩ backfilled with 3M KCl.

5-HT3A receptor K255Q = molecular target: T3, 5-HT3A receptor K255Q (Mus musculus, UniProt P23979, K282Q); assay: FlexStation membrane potential dye, 5-HT response, K255Q receptor in HEK293 cells; conditions: mean and SEM, n ≥ 3
T3 construct: expressed in transfected cells; host or cells: Xenopus laevis oocytes (cRNA injection)
T3 sequence (P23979 24-489 K282Q): T1 sequence (P23979 24-489 D265A) with A242D, K259Q
Protocol: as §1
Human embryonic kidney (HEK) 293 cells were maintained at 37 °C at 5% CO2 in a humidified atmosphere, in Dulbecco's Modified Eagle's Medium/Nutrient Mix F12 (1:1) (Invitrogen, Paisley, UK) with GlutaMAX^TM and 10% fetal bovine serum (GE Healthcare) (DMEM/FBS) and passaged when confluent.
as §2

## NCCc1c[nH]c2ccc(O)cc12 [5-HT]
5-HT3A receptor D238A
  pEC50: NF
  response to application of 5-HT: Neither Y441A nor D238A responded
5-HT3A receptor C290A
  nH: 0.5 ± 0.1
5-HT3A receptor K255Q
  nH: 1.9± 0.2
